Laboratory results from patent US20210255193A1, “LYSINE REACTIVE PROBES AND USES THEREOF” (The Scripps Research Institute, priority 2017, published 2021).

Assays:
RTN4 Reticulon-4 = molecular target: T1, RTN4 Reticulon-4 (Homo sapiens, UniProt Q9NQC3); test: competitive isoTOP-ABPP; type: binding; details: for R value (DMSO/fragment) for probe 1 labeling: Q9NQC3_K1104; for R value (DMSO/fragment) for probe 1 labeling / isoTOP-ABPP reactivity ratio at lysine Q9NQC3_K1104 / isoTOP-ABPP ratio (R) at liganded lysine Q9NQC3_K1104: 50 uM, in vitro; for R value (DMSO/fragment) for probe 1 labeling / isoTOP-ABPP reactivity ratio at lysine Q9NQC3_K1104: 231 sol; for isoTOP-ABPP ratio (R) at liganded lysine Q9NQC3_K1104: sol, 231
T1 construct: endogenous in cells; host or cells: MDA-MB-231 lysate
T1 sequence (Q9NQC3 1-1192): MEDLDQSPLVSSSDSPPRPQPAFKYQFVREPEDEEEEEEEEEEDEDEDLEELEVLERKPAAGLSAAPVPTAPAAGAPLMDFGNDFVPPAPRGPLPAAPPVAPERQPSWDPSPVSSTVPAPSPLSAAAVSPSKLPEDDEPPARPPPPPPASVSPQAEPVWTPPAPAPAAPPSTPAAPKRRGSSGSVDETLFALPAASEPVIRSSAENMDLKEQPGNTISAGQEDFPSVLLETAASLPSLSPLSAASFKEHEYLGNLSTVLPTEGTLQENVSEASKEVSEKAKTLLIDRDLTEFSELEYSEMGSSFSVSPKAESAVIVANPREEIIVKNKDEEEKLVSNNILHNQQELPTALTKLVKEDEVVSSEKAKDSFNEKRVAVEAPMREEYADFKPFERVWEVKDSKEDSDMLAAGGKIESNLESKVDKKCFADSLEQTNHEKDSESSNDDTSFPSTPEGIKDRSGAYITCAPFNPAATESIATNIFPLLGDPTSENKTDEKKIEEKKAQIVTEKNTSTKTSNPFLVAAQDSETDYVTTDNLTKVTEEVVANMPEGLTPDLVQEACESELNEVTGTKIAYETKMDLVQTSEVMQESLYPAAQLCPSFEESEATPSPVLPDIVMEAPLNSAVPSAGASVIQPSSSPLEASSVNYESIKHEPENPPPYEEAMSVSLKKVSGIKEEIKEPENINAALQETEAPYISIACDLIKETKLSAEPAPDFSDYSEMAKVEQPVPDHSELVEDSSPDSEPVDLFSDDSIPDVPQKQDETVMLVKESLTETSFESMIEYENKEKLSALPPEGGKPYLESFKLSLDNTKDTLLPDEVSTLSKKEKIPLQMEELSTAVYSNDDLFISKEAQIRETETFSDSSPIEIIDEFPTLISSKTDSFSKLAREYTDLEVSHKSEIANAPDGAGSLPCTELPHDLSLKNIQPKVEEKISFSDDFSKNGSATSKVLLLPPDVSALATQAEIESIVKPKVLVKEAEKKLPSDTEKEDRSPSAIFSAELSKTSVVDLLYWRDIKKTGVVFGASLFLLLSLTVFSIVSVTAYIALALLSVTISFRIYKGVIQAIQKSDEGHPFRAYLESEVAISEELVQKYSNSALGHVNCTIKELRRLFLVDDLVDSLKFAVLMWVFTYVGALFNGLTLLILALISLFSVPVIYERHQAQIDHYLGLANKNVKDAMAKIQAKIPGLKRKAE
How it was run: (§1)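 Here, isoTOP-ABPP measures loss of STP-alkyne labeling at individual lysines after fragment exposure in lysate. Activated esters are dosed at 50 μM, guanidinylating agents at 100 μM; the probe follows at 0.1 mM for 1 h. R ≥4 marks a liganded lysine.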

[1] = molecular target: T2, IMPDH1 Inosine-5-monophosphate dehydrogenase 1 (Homo sapiens, UniProt P20839); test: competitive isoTOP-ABPP; type: binding; details: for isoTOP-ABPP reactivity ratio at lysine P20839_K208 / isoTOP-ABPP ratio (R) at liganded lysine P20839_K208: 50 uM, in vitro; for isoTOP-ABPP reactivity ratio at lysine P20839_K208: 231 sol; for isoTOP-ABPP ratio (R) at liganded lysine P20839_K208: sol, 231
T2 construct: isoTOP-ABPP experiments performed in cell lysates (in vitro); endogenous in cells; host or cells: soluble proteome of human cancer cell lines (MDA-MB-231; Ramos and Jurkat also prepared)
T2 sequence (P20839 whole entry): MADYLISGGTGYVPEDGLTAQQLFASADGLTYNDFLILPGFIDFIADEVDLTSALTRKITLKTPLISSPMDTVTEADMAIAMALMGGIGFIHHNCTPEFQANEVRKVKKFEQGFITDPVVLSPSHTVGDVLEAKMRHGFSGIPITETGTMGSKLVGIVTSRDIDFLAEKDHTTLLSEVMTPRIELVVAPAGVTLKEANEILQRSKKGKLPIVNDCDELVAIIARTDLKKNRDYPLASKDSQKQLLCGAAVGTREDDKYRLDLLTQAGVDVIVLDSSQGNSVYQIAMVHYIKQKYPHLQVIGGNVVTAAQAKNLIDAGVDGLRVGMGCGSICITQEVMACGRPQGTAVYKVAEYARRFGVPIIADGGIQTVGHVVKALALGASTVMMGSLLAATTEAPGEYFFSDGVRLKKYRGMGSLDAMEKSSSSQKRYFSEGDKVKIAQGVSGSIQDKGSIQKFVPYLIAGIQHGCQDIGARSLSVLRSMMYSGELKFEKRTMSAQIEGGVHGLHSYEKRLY
How it was run: as §1

SMILES: O=C(Oc1c(F)c(F)c(F)c(F)c1F)C(c1ccccc1)c1ccccc1 [fragment 20, Pentafluorophenyl 2,2-diphenylacetate]
- R value (DMSO/fragment) for probe 1 labeling (RTN4 Reticulon-4): 2.4

SMILES: O=C(Oc1c(F)c(F)c(F)c(F)c1F)c1cc(C(F)(F)F)cc(C(F)(F)F)c1 [fragment 21, Pentafluorophenyl 3,5-bis(trifluoromethyl)benzoate]
- R value (DMSO/fragment) for probe 1 labeling (RTN4 Reticulon-4): 2.5

SMILES: COc1cc(CCC(=O)Oc2c(F)c(F)c(F)c(F)c2F)cc(OC)c1OC [fragment 23, Pentafluorophenyl 3-(3,4,5-trimethoxyphenyl)propanoate]
- R value (DMSO/fragment) for probe 1 labeling (RTN4 Reticulon-4): 3.3

SMILES: O=C(Oc1c(F)c(F)c(F)c(F)c1F)C1CCN(C(=O)OCc2ccccc2)CC1 [fragment 24, 1-Benzyl 4-(pentafluorophenyl) piperidine-1,4-dicarboxylate]
- isoTOP-ABPP reactivity ratio at lysine Q9NQC3_K1104 (RTN4 Reticulon-4): 2.3

SMILES: O=C(CCc1coc2cc(F)ccc2c1=O)Oc1c(F)c(F)c(F)c(F)c1F [fragment 26, Pentafluorophenyl 3-(7-fluoro-4-oxo-4H-chromen-3-yl)propanoate]
- isoTOP-ABPP reactivity ratio at lysine Q9NQC3_K1104 (RTN4 Reticulon-4): 5.3

SMILES: CCn1cc(C(=O)Oc2c(F)c(F)c(F)c(F)c2F)c(=O)c2ccc(C)nc21 [fragment 28, Pentafluorophenyl 1-ethyl-7-methyl-4-oxo-1,4-dihydro-1,8-naphthyridine-3-carboxylate]
- isoTOP-ABPP reactivity ratio at lysine Q9NQC3_K1104 (RTN4 Reticulon-4): 1.0

SMILES: O=C(CCc1cn(-c2ccccc2)nc1-c1ccccc1)Oc1ccc([N+](=O)[O-])cc1[N+](=O)[O-] [fragment 29, 2,4-Dinitrophenyl 3-(1,3-diphenyl-1H-pyrazol-4-yl)propanoate]
- isoTOP-ABPP reactivity ratio at lysine P20839_K208 [1]: 1.3
- isoTOP-ABPP reactivity ratio at lysine Q9NQC3_K1104 (RTN4 Reticulon-4): 15.6

SMILES: O=C(Oc1ccc([N+](=O)[O-])cc1[N+](=O)[O-])C(c1ccccc1)c1ccccc1 [fragment 30, 2,4-Dinitrophenyl 2,2-diphenylacetate]
- isoTOP-ABPP reactivity ratio at lysine P20839_K208 [1]: 1.6

SMILES: O=C(Oc1ccc([N+](=O)[O-])cc1[N+](=O)[O-])c1cc(C(F)(F)F)cc(C(F)(F)F)c1 [fragment 31, 2,4-Dinitrophenyl 3,5-bis(trifluoromethyl)benzoate]
- isoTOP-ABPP reactivity ratio at lysine Q9NQC3_K1104 (RTN4 Reticulon-4): 6.1

SMILES: Cn1cc(CC(=O)Oc2ccc([N+](=O)[O-])cc2[N+](=O)[O-])c2ccccc21 [fragment 32, 2,4-Dinitrophenyl 2-(1-methyl-1H-indol-3-yl)acetate]
- isoTOP-ABPP reactivity ratio at lysine Q9NQC3_K1104 (RTN4 Reticulon-4): 20.0

SMILES: COc1cc(CCC(=O)Oc2ccc([N+](=O)[O-])cc2[N+](=O)[O-])cc(OC)c1OC [fragment 33, 2,4-Dinitrophenyl 3-(3,4,5-trimethoxyphenyl)propanoate]
- isoTOP-ABPP reactivity ratio at lysine P20839_K208 [1]: 1.2
- isoTOP-ABPP reactivity ratio at lysine Q9NQC3_K1104 (RTN4 Reticulon-4): 4.3

SMILES: O=C(Oc1ccc([N+](=O)[O-])cc1[N+](=O)[O-])c1ccc2ccccc2n1 [fragment 35, 2,4-Dinitrophenyl quinoline-2-carboxylate]
- isoTOP-ABPP ratio (R) at liganded lysine Q9NQC3_K1104 (RTN4 Reticulon-4): 6.0

SMILES: O=C(CCc1coc2cc(F)ccc2c1=O)Oc1ccc([N+](=O)[O-])cc1[N+](=O)[O-] [fragment 36, 2,4-Dinitrophenyl 3-(7-fluoro-4-oxo-4H-chromen-3-yl)propanoate]
- isoTOP-ABPP ratio (R) at liganded lysine P20839_K208 [1]: 1.6

SMILES: O=C(Oc1ccc([N+](=O)[O-])cc1[N+](=O)[O-])c1ccc(-c2ccccc2)cc1 [fragment 37, 2,4-Dinitrophenyl [1,1′-biphenyl]-4-carboxylate]
- isoTOP-ABPP ratio (R) at liganded lysine P20839_K208 [1]: 1.4
- isoTOP-ABPP ratio (R) at liganded lysine Q9NQC3_K1104 (RTN4 Reticulon-4): 3.4

SMILES: O=C(CC12CC3CC(CC(C3)C1)C2)Oc1ccc([N+](=O)[O-])cc1[N+](=O)[O-] [fragment 38, 2,4-Dinitrophenyl 2-(adamantan-1-yl)acetate]
- isoTOP-ABPP ratio (R) at liganded lysine P20839_K208 [1]: 1.2

SMILES: O=C(Oc1ccc([N+](=O)[O-])cc1[N+](=O)[O-])c1ccccc1Nc1cccc(C(F)(F)F)c1 [fragment 40, 2,4-Dinitrophenyl 2-((3-(trifluoromethyl)phenyl)amino)benzoate]
- isoTOP-ABPP ratio (R) at liganded lysine Q9NQC3_K1104 (RTN4 Reticulon-4): 2.1

SMILES: CC(C)(C)OC(=O)NCCCC(=O)Oc1ccc([N+](=O)[O-])cc1[N+](=O)[O-] [fragment 41, 2,4-Dinitrophenyl 4-((tert-butoxycarbonyl)amino)butanoate]
- isoTOP-ABPP ratio (R) at liganded lysine P20839_K208 [1]: 1.2
- isoTOP-ABPP ratio (R) at liganded lysine Q9NQC3_K1104 (RTN4 Reticulon-4): 4.3

SMILES: O=C(Oc1ccc([N+](=O)[O-])cc1[N+](=O)[O-])C(c1ccccc1)(c1ccccc1)c1ccccc1 [fragment 42, 2,4-Dinitrophenyl 2,2,2-triphenylacetate]
- isoTOP-ABPP ratio (R) at liganded lysine P20839_K208 [1]: 1.2
- isoTOP-ABPP ratio (R) at liganded lysine Q9NQC3_K1104 (RTN4 Reticulon-4): 1.2

SMILES: CC(=O)Oc1ccc([N+](=O)[O-])cc1[N+](=O)[O-] [fragment 43, 2,4-Dinitrophenyl acetate]
- isoTOP-ABPP ratio (R) at liganded lysine P20839_K208 [1]: 1.3
- isoTOP-ABPP ratio (R) at liganded lysine Q9NQC3_K1104 (RTN4 Reticulon-4): 1.4

SMILES: N#Cc1ccc(C(=O)Oc2ccc([N+](=O)[O-])cc2[N+](=O)[O-])cc1 [fragment 44, 2,4-Dinitrophenyl 4-cyanobenzoate]
- isoTOP-ABPP ratio, lysine Q9NQC3_K1104 (RTN4 Reticulon-4; 50 uM_231_sol_in vitro): 2.6

SMILES: O=C(CCc1ccc2c(c1)OCO2)Oc1ccc([N+](=O)[O-])cc1[N+](=O)[O-] [fragment 45, 2,4-Dinitrophenyl 3-(benzo[d][1,3]dioxol-5-yl)propanoate]
- isoTOP-ABPP ratio, lysine P20839_K208 ([1]; 50 uM_231_sol_in vitro): 1.5

SMILES: O=C(ON1C(=O)CCC1=O)c1cc(C(F)(F)F)cc(C(F)(F)F)c1 [fragment 46, 3,5-Bis(trifluoromethyl)benzoic acid NHS ester]
- isoTOP-ABPP ratio, lysine Q9NQC3_K1104 (RTN4 Reticulon-4; 50 uM_231_sol_in vitro): 2.5

SMILES: O=C(Oc1c(F)c(F)c(C(F)(F)F)c(F)c1F)c1cc(C(F)(F)F)cc(C(F)(F)F)c1 [fragment 47, 2,3,5,6-Tetrafluoro-4-(trifluoromethyl)phenyl 3,5-bis(trifluoromethyl)benzoate]
- isoTOP-ABPP ratio, lysine P20839_K208 ([1]; 50 uM_231_sol_in vitro): 1.2
- isoTOP-ABPP ratio, lysine Q9NQC3_K1104 (RTN4 Reticulon-4; 50 uM_231_sol_in vitro): 3.8

SMILES: COC(=O)NC(=NC(=O)OCC1c2ccccc2-c2ccccc21)n1cccn1 [fragment 49, N-Methoxycarbonyl-N′-9-fluorenylmethoxycarbonyl-pyrazole-1-carboxamidine]
- isoTOP-ABPP ratio, lysine P20839_K208 ([1]; 100 uM_231_sol_in vitro): 4.4

SMILES: CC(C)(C)OC(=O)N=C(NC(=O)OC(C)(C)C)n1cccn1 [fragment 50, reference compound]
- isoTOP-ABPP ratio, lysine P20839_K208 ([1]; 100 uM_231_sol_in vitro): 20.0
- isoTOP-ABPP ratio, lysine Q9NQC3_K1104 (RTN4 Reticulon-4; 100 uM_231_sol_in vitro): 1.4

SMILES: NC(=O)c1cc(C(F)(F)F)cc(C(F)(F)F)c1 [fragment 51, reference compound]
- isoTOP-ABPP ratio, lysine Q9NQC3_K1104 (RTN4 Reticulon-4; 50 uM_231_sol_in vitro): 0.7
